pIC50: −log10 of the molar value. Active and inactive are the calls of the source. The rule behind the calls is not given here.
Key:
[1] = target: Cyclin-dependent kinase 2/cyclin A (Homo sapiens) (UniProt P24941+P20248+P78396); test: Inhibition of CDK2/cyclin A (unknown origin) using […] at 1 uM incubated for 40 mins in presence of ATP by Kinase-Glo assay relative to control; assay type: protein-complex assay
[2] = Inhibition of CDK1/cyclin B (unknown origin) using […] incubated for 40 mins in presence of ATP by Kinase-Glo assay; design: species or system Homo sapiens
[3] = target: Cyclin-dependent kinase 5/CDK5 activator 1 (Homo sapiens, UniProt Q00535); test: Inhibition of CDK5/p35 (unknown origin) using […] incubated for 40 mins in presence of ATP by Kinase-Glo assay; assay type: protein-complex assay
[4] = Inhibition of CDK6/cyclin D (unknown origin) using […] incubated for 40 mins in presence of ATP by Kinase-Glo assay; design: species or system Homo sapiens
[5] = Selectivity index, ratio of IC50 for CDK1/cyclin B (unknown origin) using […] to IC50 for CDK2/cyclin A (unknown origin) using […]
MDA-MB-231 = test: Antiproliferative activity against human MDA-MB-231 cells assessed as cell growth inhibition incubated for 48 hrs by MTT assay; assay type: functional, cell-based; conditions: MDA-MB-231, 48 h
HT-29 = test: Antiproliferative activity against human HT-29 cells assessed as cell growth inhibition incubated for 48 hrs by MTT assay; assay type: functional, cell-based; conditions: HT-29, 48 h
[6] = target: Cyclin-dependent kinase 2 (Homo sapiens) (UniProt P24941); test: Inhibition of CDK2 in human HCT-116 cells assessed as reduction in Rb phosphorylation at Ser780 incubated for 24 hr s by Western blot analysis; assay type: cell-based; conditions: dose <= 0.8 µM
HCT-116 [7] = test: Induction of cell cycle arrest in human HCT-116 cells assessed as accumulation at sub-G1 phase at 0.4 uM incubated for 24 hrs by PI staining based flow cytometry (reference value: 2.45 +/- 0.49 %); assay type: functional
HCT-116 [8] = test: Induction of cell cycle arrest in human HCT-116 cells assessed as accumulation at G2/M phase at 0.4 uM incubated for 24 hrs by PI staining based flow cytometry (reference value: 20.6 +/- 3.38 %); assay type: functional
HCT-116 [9] = test: Induction of cell cycle arrest in human HCT-116 cells assessed as accumulation at sub-G1 phase at 0.8 uM incubated for 24 hrs by PI staining based flow cytometry (reference value: 2.45 +/- 0.49 %); assay type: functional
HeLa [10] = test: Induction of cell cycle arrest in human HeLa cells assessed as accumulation at G1/G0 phase at 0.9 uM incubated for 24 hrs by PI staining based flow cytometry (reference value: 57.63 +/- 1.7 %); assay type: functional
HeLa [11] = test: Induction of cell cycle arrest in human HeLa cells assessed as accumulation at S phase at 3.6 uM incubated for 24 hrs by PI staining based flow cytometry (reference value: 17.84 +/- 1.89 %); assay type: functional
HeLa [12] = test: Induction of cell cycle arrest at G2/M phase in human HeLa cells assessed as decrease in p-Cdc2 level incubated for 48 hrs by Western blot analysis; assay type: functional, cell-based; conditions: dose <= 3.6 µM
HeLa [13] = test: Induction of cell cycle arrest at G2/M phase in human HeLa cells assessed as decrease in cyclin B1 level incubated for 48 hrs by Western blot analysis; assay type: functional, cell-based; conditions: dose <= 3.6 µM
HCT-116 [14] = test: Induction of apoptosis in human HCT-116 cells assessed as late apoptotic cells at 0.2 uM incubated for 24 hrs by PI staining based flow cytometry (reference value: 1.11 %); assay type: functional
HCT-116 [15] = test: Induction of apoptosis in human HCT-116 cells assessed as early apoptotic cells at 0.4 uM incubated for 24 hrs by PI staining based flow cytometry (reference value: 0.19 %); assay type: functional
HCT-116 [16] = test: Induction of apoptosis in human HCT-116 cells assessed as necrotic cells at 0.4 uM incubated for 24 hrs by PI staining based flow cytometry (reference value: 18.9 %); assay type: functional
HCT-116 [17] = test: Induction of apoptosis in human HCT-116 cells assessed as viable cells at 0.8 uM incubated for 24 hrs by PI staining based flow cytometry (reference value: 79.4 %); assay type: functional; conditions: read-out: Activity
HCT-116 [18] = test: Induction of apoptosis in human HCT-116 cells assessed as early apoptotic cells at 0.8 uM incubated for 24 hrs by PI staining based flow cytometry (reference value: 0.19 %); assay type: functional
HeLa [19] = test: Induction of apoptosis in human HeLa cells assessed as viable cells at 0.9 uM incubated for 24 hrs by PI staining based flow cytometry (reference value: 68.9 %); assay type: functional; conditions: read-out: Activity
HeLa [20] = test: Induction of apoptosis in human HeLa cells assessed as late apoptotic cells at 1.8 uM incubated for 24 hrs by PI staining based flow cytometry (reference value: 3.85 %); assay type: functional
HeLa [21] = test: Induction of apoptosis in human HeLa cells assessed as viable cells at 3.6 uM incubated for 24 hrs by PI staining based flow cytometry (reference value: 68.9 %); assay type: functional; conditions: read-out: Activity
HeLa [22] = test: Induction of apoptosis in human HeLa cells assessed as necrotic cells at 3.6 uM incubated for 24 hrs by PI staining based flow cytometry (reference value: 25.5 %); assay type: functional
HCT-116 [23] = test: Induction of apoptosis in human HCT-116 cells assessed as total apoptotic cells at 0.8 uM incubated for 24 hrs by PI staining based flow cytometry (reference value: 1.30 %); assay type: functional
HeLa [24] = test: Induction of apoptosis in human HeLa cells assessed as increase in p53 level upto 3.6 uM incubated for 24 hrs by Western blot analysis; assay type: functional, cell-based
HCT-116 [25] = test: Induction of apoptosis in human HCT-116 cells assessed as increase in cleaved PARP level upto 0.8 uM incubated for 24 hrs by Western blot analysis; assay type: functional, cell-based
HeLa [26] = test: Induction of apoptosis in human HeLa cells assessed as increase in cleaved PARP level upto 3.6 uM incubated for 24 hrs by Western blot analysis; assay type: functional, cell-based
[27] = MRT (0 to t) in Sprague-Dawley rat at 2 mg/kg, iv measured for 36 hrs by MRM analysis; assay type: ADME, organism-based; conditions: in vivo
[28] = MRT (0 to infinity) in Sprague-Dawley rat at 2 mg/kg, iv measured for 36 hrs by MRM analysis; assay type: ADME, organism-based; conditions: in vivo
[29] = Half life in Sprague-Dawley rat at 2 mg/kg, iv measured for 36 hrs by MRM analysis; assay type: ADME, organism-based; conditions: in vivo
[30] = Cmax in Sprague-Dawley rat at 2 mg/kg, iv measured for 36 hrs by MRM analysis; assay type: ADME, organism-based; conditions: in vivo
[31] = AUC (0 to t) in Sprague-Dawley rat at 10 mg/kg, po measured for 36 hrs by MRM analysis; assay type: ADME, organism-based; conditions: in vivo
[32] = MRT (0 to t) in Sprague-Dawley rat at 10 mg/kg, po measured for 36 hrs by MRM analysis; assay type: ADME, organism-based; conditions: in vivo
[33] = Clearance in Sprague-Dawley rat at 10 mg/kg, po measured for 36 hrs by MRM analysis; assay type: ADME, organism-based; conditions: in vivo
[34] = Apparent volume of distribution in Sprague-Dawley rat at 10 mg/kg, po measured for 36 hrs by MRM analysis; assay type: ADME, organism-based; conditions: in vivo
HCT-116 [35] = test: Antitumor activity against human HCT-116 cells xenografted in Balb/c-nu nude mouse at 35 mg/kg/day, po treated for 7 days consecutively relative to control; assay type: functional; conditions: HCT-116, 168 h, time 7 day, read-out: TGI

Sequence of Cyclin-dependent kinase 5/CDK5 activator 1 (Q00535 whole entry): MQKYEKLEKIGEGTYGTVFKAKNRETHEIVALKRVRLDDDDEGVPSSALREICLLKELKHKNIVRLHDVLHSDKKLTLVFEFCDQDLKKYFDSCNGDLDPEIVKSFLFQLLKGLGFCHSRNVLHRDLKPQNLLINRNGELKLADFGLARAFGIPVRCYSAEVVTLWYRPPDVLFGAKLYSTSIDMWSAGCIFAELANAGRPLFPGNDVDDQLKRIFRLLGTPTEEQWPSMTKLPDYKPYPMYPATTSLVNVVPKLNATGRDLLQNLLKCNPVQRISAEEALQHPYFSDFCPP
Sequence of Cyclin-dependent kinase 5/CDK5 activator 1 (Q15078 whole entry, further chain): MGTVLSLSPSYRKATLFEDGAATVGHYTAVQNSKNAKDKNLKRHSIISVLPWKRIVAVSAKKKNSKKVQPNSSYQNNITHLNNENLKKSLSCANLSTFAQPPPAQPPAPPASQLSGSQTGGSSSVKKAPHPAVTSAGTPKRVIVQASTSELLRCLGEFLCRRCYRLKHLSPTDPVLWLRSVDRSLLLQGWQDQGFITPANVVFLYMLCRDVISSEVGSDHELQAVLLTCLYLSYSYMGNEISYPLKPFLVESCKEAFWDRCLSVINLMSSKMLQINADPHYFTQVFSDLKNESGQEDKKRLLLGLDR

inhibition [1]: 99.5%
pIC50 [2]: 7.28
pIC50 [3]: 6.92
pIC50 [4]: 5.49
Ratio IC50 [5]: 13
pIC50 (MDA-MB-231): 6.03
pIC50 (HT-29): 5.44
inhibition [6]: Dose-dependent-effect
MRT last at 36 h [27]: 2.7 h
MRT inf [28]: 2.8 h
half-life [29]: 4.5 h
Cmax [30]: 29.1 ng/mL
AUC(0-t) at 36 h [31]: 143 ng·h/mL
MRT last at 36 h [32]: 6.5 h
CL/F [33]: 1180 mL/min/kg
Vz [34]: 398.7 L/kg
SMILES: Cc1cnc(Nc2ccc(S(N)(=O)=O)cc2)nc1Nc1nccs1
Activity (HCT-116 [7]): 1.91%
Activity (HCT-116 [8]): 33.27%
Activity (HCT-116 [9]): 1.71%
Activity (HeLa [10]): 52.88%
Activity (HeLa [11]): 17.55%
Activity (HeLa [12]): Dose-dependent-effect
Activity (HeLa [13]): Dose-dependent-effect
Activity (HCT-116 [14]): 31.2%
Activity (HCT-116 [15]): 17.9%
Activity (HCT-116 [16]): 4.8%
viability at 0.8 µM (HCT-116 [17]): 52.8%
Activity (HCT-116 [18]): 15.5%
viability at 0.9 µM (HeLa [19]): 29.1%
Activity (HeLa [20]): 25.9%
viability at 3.6 µM (HeLa [21]): 11.7%
Activity (HeLa [22]): 0.72%
Activity (HCT-116 [23]): 43.2%
Activity (HeLa [24]): Active
Activity (HCT-116 [25]): Active
Activity (HeLa [26]): Active
inhibition in vivo at 35 mg/kg/day (HCT-116 [35]): 39%
